{"source": "the supplement of paper PMC6045584", "note": "± gives the standard deviation of the averaged measurements.", "data": [{"compound": "COc1cccc2c1C(=O)c1c(O)c3c(c(O)c1C2=O)C[C@@](O)(C(=O)CO)C[C@@H]3O[C@H]1C[C@H](N)[C@H](O)[C@H](C)O1 [DOXORUBICIN]", "experiment": "surviving fraction relative to DMSO-only wells; higher = less growth inhibition", "conditions": "0.5 nM; exposure time: 5 days", "how_it_was_run": "(§1)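 Tumour cell lines in log phase were plated in 384-well plates at 250–500 cells per well, then, after 24 hours, exposed continuously for five days to inhibitors at 0.5, 1, 5, 10, 50, 100, 500 and 1000 nM. Viability came from CellTiter-Glo luminescence, and surviving fraction is that signal normalised to the median of DMSO-only wells. Plates were read after 10 minutes at room temperature, and each line, screened three times, was kept only when replicate Pearson r was >0.7 and median Z' was >0.3.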", "values": [{"test system": "SCC36 HEADNECK", "surviving fraction": "0.694 ± 0.073"}, {"test system": "OS25HAL BONE", "surviving fraction": "0.982 ± 0.016"}, {"test system": "HCC1806 BREAST", "surviving fraction": "0.963 ± 0.033"}, {"test system": "HU09 BONE", "surviving fraction": "0.924 ± 0.04"}, {"test system": "SG43 HEADNECK", "surviving fraction": "0.854 ± 0.15"}, {"test system": "U2OS BONE", "surviving fraction": "1.04 ± 0.053"}, {"test system": "HOSMNG BONE", "surviving fraction": "0.976 ± 0.05"}, {"test system": "CASKI CERVIX", "surviving fraction": "0.684 ± 0.14"}, {"test system": "SUM44 BREAST", "surviving fraction": "0.938 ± 0.054"}, {"test system": "MDAMB231 BREAST", "surviving fraction": "0.979 ± 0.029"}, {"test system": "CAL51 BREAST", "surviving fraction": "0.903 ± 0.044"}, {"test system": "MDAMB436 BREAST", "surviving fraction": "0.895 ± 0.077"}, {"test system": "HSSYII SYNOVIAL", "surviving fraction": "0.901 ± 0.025"}, {"test system": "RDES SOFT TISSUE", "surviving fraction": "1.15 ± 0.035"}, {"test system": "MDAMB157 BREAST", "surviving fraction": "0.918 ± 0.025"}, {"test system": "CHLA90 AUTONOMIC GANGLIA", "surviving fraction": "1 ± 0.024"}, {"test system": "CADOES1 SOFT TISSUE", "surviving fraction": "0.93 ± 0.061"}, {"test system": "SG31 HEADNECK", "surviving fraction": "1.1 ± 0.095"}, {"test system": "SCC47 HEADNECK", "surviving fraction": "1.021 ± 0.0081"}, {"test system": "S68 BREAST", "surviving fraction": "0.792 ± 0.077"}, {"test system": "SNU475 LIVER", "surviving fraction": "0.958 ± 0.051"}, {"test system": "22RV1 PROSTATE", "surviving fraction": "1.02 ± 0.018"}, {"test system": "SG32 HEADNECK", "surviving fraction": "1.19 ± 0.12"}, {"test system": "SCC003 HEADNECK", "surviving fraction": "0.959 ± 0.12"}, {"test system": "JURKAT HAEMATOPOIETIC AND LYMPHOID TISSUE", "surviving fraction": "1.05 ± 0.023"}, {"test system": "HT1080 SOFT TISSUE", "surviving fraction": "0.992 ± 0.01"}, {"test system": "CAL120 BREAST", "surviving fraction": "0.955 ± 0.015"}, {"test system": "MCF7 BREAST", "surviving fraction": "0.857 ± 0.038"}, {"test system": "MFM223 BREAST", "surviving fraction": "1.11 ± 0.045"}, {"test system": "LNCAP PROSTATE", "surviving fraction": "0.973 ± 0.018"}, {"test system": "PCI30 HEADNECK", "surviving fraction": "0.979 ± 0.094"}, {"test system": "OSHN BONE", "surviving fraction": "1.04 ± 0.039"}, {"test system": "SG28 HEADNECK", "surviving fraction": "1.11 ± 0.12"}, {"test system": "HOS BONE", "surviving fraction": "1.009 ± 0.0046"}, {"test system": "HUO3N1 BONE", "surviving fraction": "0.977 ± 0.053"}, {"test system": "BT20 BREAST", "surviving fraction": "1.1 ± 0.033"}, {"test system": "SJSA1 BONE", "surviving fraction": "1.02 ± 0.015"}, {"test system": "JIMT1 BREAST", "surviving fraction": "0.943 ± 0.0048"}, {"test system": "HCC78 LUNG", "surviving fraction": "0.894 ± 0.24"}, {"test system": "NY BONE", "surviving fraction": "0.959 ± 0.019"}, {"test system": "NOS1 BONE", "surviving fraction": "1.16 ± 0.077"}]}, {"compound": "COc1cccc2c1C(=O)c1c(O)c3c(c(O)c1C2=O)C[C@@](O)(C(=O)CO)C[C@@H]3O[C@H]1C[C@H](N)[C@H](O)[C@H](C)O1 [DOXORUBICIN]", "experiment": "surviving fraction relative to DMSO-only wells; higher = less growth inhibition", "conditions": "1 nM; exposure time: 5 days", "how_it_was_run": "as §1", "values": [{"test system": "SCC36 HEADNECK", "surviving fraction": "1.13 ± 0.046"}, {"test system": "OS25HAL BONE", "surviving fraction": "0.974 ± 0.013"}, {"test system": "HCC1806 BREAST", "surviving fraction": "1.01 ± 0.076"}, {"test system": "HU09 BONE", "surviving fraction": "0.964 ± 0.11"}, {"test system": "SG43 HEADNECK", "surviving fraction": "0.776 ± 0.14"}, {"test system": "U2OS BONE", "surviving fraction": "1.01 ± 0.015"}, {"test system": "HOSMNG BONE", "surviving fraction": "1.02 ± 0.032"}, {"test system": "CASKI CERVIX", "surviving fraction": "0.85 ± 0.04"}, {"test system": "SUM44 BREAST", "surviving fraction": "0.887 ± 0.041"}, {"test system": "MDAMB231 BREAST", "surviving fraction": "0.992 ± 0.037"}, {"test system": "CAL51 BREAST", "surviving fraction": "0.919 ± 0.026"}, {"test system": "MDAMB436 BREAST", "surviving fraction": "0.905 ± 0.069"}, {"test system": "HSSYII SYNOVIAL", "surviving fraction": "0.759 ± 0.018"}, {"test system": "RDES SOFT TISSUE", "surviving fraction": "1.15 ± 0.061"}, {"test system": "MDAMB157 BREAST", "surviving fraction": "0.869 ± 0.053"}, {"test system": "CHLA90 AUTONOMIC GANGLIA", "surviving fraction": "0.982 ± 0.024"}, {"test system": "CADOES1 SOFT TISSUE", "surviving fraction": "0.795 ± 0.037"}, {"test system": "SG31 HEADNECK", "surviving fraction": "1.03 ± 0.035"}, {"test system": "SCC47 HEADNECK", "surviving fraction": "1.03 ± 0.11"}, {"test system": "S68 BREAST", "surviving fraction": "0.87 ± 0.13"}, {"test system": "SNU475 LIVER", "surviving fraction": "0.9777 ± 0.0038"}, {"test system": "22RV1 PROSTATE", "surviving fraction": "0.917 ± 0.047"}, {"test system": "SG32 HEADNECK", "surviving fraction": "1.07 ± 0.27"}, {"test system": "SCC003 HEADNECK", "surviving fraction": "1.04 ± 0.12"}, {"test system": "JURKAT HAEMATOPOIETIC AND LYMPHOID TISSUE", "surviving fraction": "1.049 ± 0.0078"}, {"test system": "HT1080 SOFT TISSUE", "surviving fraction": "0.95 ± 0.041"}, {"test system": "CAL120 BREAST", "surviving fraction": "0.916 ± 0.019"}, {"test system": "MCF7 BREAST", "surviving fraction": "0.868 ± 0.042"}, {"test system": "MFM223 BREAST", "surviving fraction": "1.05 ± 0.032"}, {"test system": "LNCAP PROSTATE", "surviving fraction": "0.863 ± 0.076"}, {"test system": "PCI30 HEADNECK", "surviving fraction": "0.929 ± 0.01"}, {"test system": "OSHN BONE", "surviving fraction": "1.05 ± 0.059"}, {"test system": "SG28 HEADNECK", "surviving fraction": "1.11 ± 0.083"}, {"test system": "HOS BONE", "surviving fraction": "1 ± 0.028"}, {"test system": "HUO3N1 BONE", "surviving fraction": "1.02 ± 0.021"}, {"test system": "BT20 BREAST", "surviving fraction": "1.02 ± 0.11"}, {"test system": "SJSA1 BONE", "surviving fraction": "0.991 ± 0.027"}, {"test system": "JIMT1 BREAST", "surviving fraction": "0.963 ± 0.025"}, {"test system": "HCC78 LUNG", "surviving fraction": "0.733 ± 0.17"}, {"test system": "NY BONE", "surviving fraction": "0.966 ± 0.013"}, {"test system": "NOS1 BONE", "surviving fraction": "0.972 ± 0.051"}]}]}
